Here are results for 23 compounds from patent publication US20210040118A1, “IMMUNOMODULATORS, COMPOSITIONS AND METHODS THEREOF” (BETTA PHARMACEUTICALS CO., LTD, priority 2018, published 2021).

Each structure is given as a SMILES string.

T1 sequence (Q9NZQ7 19-238): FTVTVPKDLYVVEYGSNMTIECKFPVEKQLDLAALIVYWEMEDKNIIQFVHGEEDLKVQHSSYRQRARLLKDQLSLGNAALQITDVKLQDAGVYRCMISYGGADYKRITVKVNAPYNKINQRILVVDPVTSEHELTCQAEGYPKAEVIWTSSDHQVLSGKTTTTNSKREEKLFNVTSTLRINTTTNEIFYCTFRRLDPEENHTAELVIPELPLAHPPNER

The first assay concerns the target T1, PD-1/PD-L1 (Homo sapiens, UniProt Q9NZQ7).
T1 construct: Recombinant human PD-L1 protein (19-238) with a His-tag at the C-terminus; purchased AcroBiosystems PD1-H5229 (PD-L1); PD1-H5257 (PD-1)
The assay can be described thus: PD-1/PD-L1 homogenous time-resolved fluorescence (HTRF) binding assay. Particulars: recombinant human PD-L1 (19-238) His-tag / human PD-1 (25-167) Fc tag, class symbols. The protocol: Resolved Fluorescence (HTRF) Binding Assay
The assays were conducted in a standard black 384-well polystyrene plate with a final volume of 20 μL. Inhibitors were first serially diluted in DMSO and then added to the plate wells before the addition of other reaction components. The final concentration of DMSO in the assay was 1%. The assays were carried out at 25° C. in the PBS buffer (pH 7.4) with 0.05% Tween-20 and 0.1% BSA. Recombinant human PD-L1 protein (19-238) with a His-tag at the C-terminus was purchased from AcroBiosy stems (PD1-H5229). Recombinant human PD-1 protein (25-167) with Fc tag at the C-terminus was also purchased from AcroBiosystems (PD1-H5257). PD-L1 and PD-1 proteins were diluted in the assay buffer and 10 μL was added to the plate well. Plates were centrifuged and proteins were preincubated with inhibitors for 40 min. The incubation was followed by the addition of […] of HTRF detection buffer supplemented with Europium cryptate-labeled anti-human IgG (PerkinElmer-AD0212) specific for Fc and anti-His antibody conjugated to SureLight®-Allophycocyanin (APC, PerkinElmer-AD0059H). After centrifugation, the plate was incubated at 25° C. for 60 min. Before reading on a PHERAstar FS plate reader (665 nm/620 nm ratio). Final concentrations in the assay were […] PD1, 10 nM PD-L1, 1 nM europium anti-human IgG and 20 nM anti-His-Allophycocyanin. IC50 determination was performed by fitting the curve of percent control activity versus the log of the inhibitor concentration using the GraphPad Prism 5.0 software.
Data obtained for the Example compounds using the PD-1/PD-L1 homogenous time-resolved fluorescence (HTRF) binding assay described in Example A is provided in Table 4.
In general terms: In TR-FRET formats the signal depends on donor and acceptor labels being close together.
For orientation: IC50 means the point on the concentration scale where inhibition reaches its midpoint. As for `Cc1nc(C(=O)N2CCc3c(-c4cccc5c4CCN5C(=O)c4nc(C)c(CN[C@H](C(=O)O)C5CCOCC5)s4)cccc32)sc1CN[C@H](C(=O)O)C1CCOCC1` [Example 57, (2S,2'S)-2,2′-(2,2′-(4,4′-biindoline-1,1′-diylbis(oxomethylene))bis(4-methylthiazole-5,2-diyl))bis(methylene)bis(azanediyl)bis(2-(tetrahydro-2H-pyran-4-yl)acetic acid)], the IC50 was under 25 nM.

For the compound `Cc1c(NC(=O)c2ccc3c(n2)CCNC3)cccc1-c1cccc(NC(=O)c2ccc3c(n2)CCN(C)C3)c1C` [Example 185, N-(2,2′-dimethyl-3′-(5,6,7,8-tetrahydro-1,6-naphthyridine-2-carboxamido)-[1,1′-biphenyl]-3-yl)-6-methyl-5,6,7,8-tetrahydro-1,6-naphthyridine-2-carboxamide], the IC50 is under 25 nM.

With `Cc1c(NC(=O)c2nc3c(s2)CNCC3)cccc1-c1cccc(NC(=O)c2nc3ccc(N)cc3s2)c1C` [Example 11, N-(3′-(6-aminobenzo[d]thiazole-2-carboxamido)-2,2′-dimethyl-[1,1′-biphenyl]-3-yl)-4,5,6,7-tetrahydrothiazolo[5,4-c]pyridine-2-carboxamide], the IC50 was in the range of 100 to 200 nM.

With `O=C(O)CN1C2CCC1c1sc(C(=O)N3CCc4c(-c5cccc6c5CCN6C(=O)c5nc6c(s5)C5CCC(C6)N5CC(=O)O)cccc43)nc1C2` [Example 110, 2,2′-(([4,4′-biindoline]-1,1′-dicarbonyl)bis(5,6,7,8-tetrahydro-4H-5,8-epiminocyclohepta[d]thiazole-2,9-diyl))diacetic acid], the half-inhibitory concentration (IC50) was under 25 nM.

Turning to `O=C(c1nc2c(s1)CN(C1COC1)CC2)N1CCc2c(-c3cccc4c3CCN4C(=O)c3nc4c(s3)CN(C3COC3)CC4)cccc21` [Example 88, [4,4′-biindoline]-1,1′-diylbis((5-(oxetan-3-yl)-4,5,6,7-tetrahydrothiazolo[5,4-c]pyridin-2-yl)methanone)], the IC50 was under 25 nM.

As to `COC(=O)N[C@H](C(=O)N1CCc2nc(C(=O)Nc3cccc(-c4cccc(NC(=O)c5ccc6c(n5)CCN(C(=O)[C@@H](NC(=O)OC)C(C)C)C6)c4C)c3C)ccc2C1)C(C)C` [Example 169, dimethyl ((2S,2'S)-((((2,2′-dimethyl-[1,1′-biphenyl]-3,3′-diyl)bis(azanediyl))bis(carbonyl))bis(7,8-dihydro-1,6-naphthyridine-2,6(5H)-diyl))bis(3-methyl-1-oxobutane-1,2-diyl))dicarbamate], the IC50 is under 25 nM.

Take `CC(C)(C(=O)NS(C)(=O)=O)N1CCc2nc(C(=O)N3CCc4c(-c5cccc6c5CCN6C(=O)c5nc6c(s5)CN(C(C)(C)C(=O)NS(C)(=O)=O)CC6)cccc43)sc2C1` [Example 128, 2,2′-(([4,4′-biindoline]-1,1′-dicarbonyl)bis(6,7-dihydrothiazolo[5,4-c]pyridine-2,5(4H)-diyl))bis(2-methyl-N-(methylsulfonyl)propanamide)]: the IC50 was 25 to 100 nM.

In the case of `Cc1c(-c2cccc(N(C)C(=O)c3nc4ccc(N)cc4s3)c2C)cccc1N(C)C(=O)c1nc2c(s1)CNCC2` [Example 21, N-(3′-(6-amino-N-methylbenzo[d]thiazole-2-carboxamido)-2,2′-dimethyl-[1,1′-biphenyl]-3-yl)-N-methyl-4,5,6,7-tetrahydrothiazolo[5,4-c]pyridine-2-carboxamide], the IC50 fell in the range of 100 to 200 nM.

For the compound `Cc1c(NC(=O)c2nnc([C@H](C)N3CCCC[C@H]3C(=O)O)s2)cccc1-c1cccc(NC(=O)c2nnc([C@H](C)N3CCCC[C@H]3C(=O)O)s2)c1C` [Example 17, (2S,2'S)-1,1′-((1S,1'S)-((((2,2′-dimethyl-[1,1′-biphenyl]-3,3′-diyl)bis(azanediyl))bis(carbonyl))bis(1,3,4-thiadiazole-5,2-diyl))bis(ethane-1,1-diyl))bis(piperidine-2-carboxylic acid)], the concentration for half-maximal inhibition (IC50) was under 25 nM.

As for `Cc1c(NCc2nnc(C3(N)CCC3)s2)cccc1-c1cccc(NCc2nnc(C3(N)CCC3)s2)c1C` [Example 26, N3,N3′-bis((5-(1-aminocyclobutyl)-1,3,4-thiadiazol-2-yl)methyl)-2,2′-dimethyl-[1,1′-biphenyl]-3,3′-diamine], the IC50 was in the range of 25 to 100 nM.

Regarding `Cc1c(Nc2nccc3cc(CNCC(=O)N(C)C)cnc23)cccc1-c1cccc(Nc2nccc3cc(CNCC(=O)N(C)C)cnc23)c1C` [Example 145, 2,2′-(((((2,2′-dimethyl-[1,1′-biphenyl]-3,3′-diyl)bis(azanediyl))bis(1,7-naphthyridine-8,3-diyl))bis(methylene))bis(azanediyl))bis(N,N-dimethylacetamide)], the IC50 is under 25 nM.

For the compound `Cc1c(NC(=O)c2cn3c(n2)CNCC3)cccc1-c1cccc(NC(=O)c2cc3c(s2)CCNC3)c1C` [Example 35, N-(2,2′-dimethyl-3′-(5,6,7,8-tetrahydroimidazo[1,2-a]pyrazine-2-carboxamido)-[1,1′-biphenyl]-3-yl)-4,5,6,7-tetrahydrothieno[3,2-c]pyridine-2-carboxamide], the IC50 is under 25 nM.

As to `Cc1c(NC(=O)c2ncc3c(n2)CCNC3)cccc1-c1cccc(NC(=O)c2ncc3c(n2)CCNC3)c1C` [Example 188, N,N′-(2,2′-dimethyl-[1,1′-biphenyl]-3,3′-diyl)bis(5,6,7,8-tetrahydropyrido[4,3-d]pyrimidine-2-carboxamide)], the IC50 was under 25 nM.

For the compound `Cc1c(NC(=O)c2nc3c(s2)CN(Cc2ccc(Cl)c(Cl)c2)CC3)cccc1-c1cccc(NC(=O)c2nc3c(s2)CN(Cc2ccc(Cl)c(Cl)c2)CC3)c1C` [Example 75, N,N′-(2,2′-dimethyl-[1,1′-biphenyl]-3,3′-diyl)bis(5-(3,4-dichlorobenzyl)-4,5,6,7-tetrahydrothiazolo[5,4-c]pyridine-2-carboxamide)], the half-maximal inhibitory concentration (IC50) fell in the range of 100 to 200 nM.

As to `Cc1c(NC(=O)c2ncc(CN3CCCC[C@H]3C(=O)O)s2)cccc1-c1cccc2c1CCN2C(=O)c1ncc(CN2CCCC[C@H]2C(=O)O)s1` [Example 72, (S)-1-((2-((3-(1-(5-(((S)-2-carboxypiperidin-1-yl)methyl)thiazole-2-carbonyl)indolin-4-yl)-2-methylphenyl)carbamoyl)thiazol-5-yl)methyl)piperidine-2-carboxylic acid], the IC50 is under 25 nM.

Regarding `Cc1c(NC(=O)c2ncc(CN3CCCC3)s2)cccc1-c1cccc(NC(=O)c2ncc(CN3CCCC3)s2)c1C` [Example 29, N,N′-(2,2′-dimethyl-[1,1′-biphenyl]-3,3′-diyl)bis(5-(pyrrolidin-1-ylmethyl)thiazole-2-carboxamide)], the IC50 was under 25 nM.

On to `Cc1c(NC(=O)c2nnc([C@@H]3CCCN3)s2)cccc1-c1cccc(NC(=O)c2nnc([C@@H]3CCCN3)s2)c1C` [Example 3, N,N′-(2,2′-dimethyl-[1,1′-biphenyl]-3,3′-diyl)bis(5-((S)-pyrrolidin-2-yl)-1,3,4-thiadiazole-2-carboxamide)], for which the 50% inhibitory concentration (IC50) was under 25 nM.

On to `Cc1c(NC(=O)c2nnc([C@H](C)N)o2)cccc1-c1cccc(NC(=O)c2nnc([C@H](C)N)o2)c1C` [Example 9, N,N′-(2,2′-dimethyl-[1,1′-biphenyl]-3,3′-diyl)bis(5-((S)-1-aminoethyl)-1,3,4-oxadiazole-2-carboxamide)], for which the IC50 was under 25 nM.

As to `NC(=O)NCCN1CCc2nc(C(=O)N3CCc4c(-c5cccc6c5CCN6C(=O)c5nc6c(s5)CN(CCNC(N)=O)CC6)cccc43)sc2C1` [Example 134, 1,1′-((([4,4′-biindoline]-1,1′-dicarbonyl)bis(6,7-dihydrothiazolo[5,4-c]pyridine-2,5(4H)-diyl))bis(ethane-2,1-diyl))diurea], the IC50 is under 25 nM.

As to `Cc1c(NC(=O)c2nc3c(s2)CN(CC#N)CC3)cccc1-c1cccc(NC(=O)c2nc3c(s2)CN(CC#N)CC3)c1C` [Example 80, N,N′-(2,2′-dimethyl-[1,1′-biphenyl]-3,3′-diyl)bis(5-(cyanomethyl)-4,5,6,7-tetrahydrothiazolo[5,4-c]pyridine-2-carboxamide)], the IC50 was under 25 nM.

As for `Cc1c(Nc2nccc3cc(CNCC(=O)O)cnc23)cccc1-c1cccc(Nc2nccc3cc(CNCC(=O)O)cnc23)c1C` [Example 138, 2,2′-(((((2,2′-dimethyl-[1,1′-biphenyl]-3,3′-diyl)bis(azanediyl))bis(1,7-naphthyridine-8,3-diyl))bis(methylene))bis(azanediyl))diacetic acid], the half-inhibitory concentration (IC50) was under 25 nM.

Still in this assay, the particulars now being: recombinant human PD-L1 (19-238) His-tag / human PD-1 (25-167) Fc tag, numeric values.
With `Cc1c(NC(=O)c2nnc(C3(N)CCC3)s2)cccc1-c1cccc(NC(=O)c2nnc(C3(N)CCC3)s2)c1C` [Example 27, N,N′-(2,2′-dimethyl-[1,1′-biphenyl]-3,3′-diyl)bis(5-(1-aminocyclobutyl)-1,3,4-thiadiazole-2-carboxamide)], the IC50 was determined as 3.13 nM.

For `CN1CCc2nc(C(=O)Nc3cccc(-c4cccc(NC(=O)c5nc6c(s5)CN(C)CC6)c4Cl)c3Cl)sc2C1` [Example 44, N,N′-(2,2′-dichloro-[1,1′-biphenyl]-3,3′-diyl)bis(5-methyl-4,5,6,7-tetrahydrothiazolo[5,4-c]pyridine-2-carboxamide)], the half-inhibitory concentration (IC50) came out at 0.62 nM.
